{"source": "patent US10729674B2", "about": "“Nanoparticle isoflavone compositions and methods of making and using the same” (Humanetics Corporation, priority 2010, dated 2020)", "key": {"[1]": {"experiment": "Radiochemical stability of the test article in dose formulations", "assay_type": "physicochemical", "conditions": "for mean stability value (radiochemical): dog study; for mean radiochemical stability: mouse study", "description": "The concentration of radioactivity in both dose formulations was measured pre and post dose by liquid scintillation spectroscopy and was similar on both occasions. The radiochemical stability of the test article in both dose formulations was assessed prior to and following the administration of the dose. The mean radiochemical stability of the test article in the dose formulation samples from the intramuscular dose formulation (Group 2) were 98.5% and 98.2%, respectively. The mean radiochemical stability values for pre and post dose samples from the intravenous dose formulation (Group 3) were 98.3% and 98.5%, respectively. Therefore, the ^14C-Genistein in both formulations was considered to have been radiochemically stable throughout the dosing period.\n(§1) Male Beagle dogs were administered a single IV bolus dose (Group 1, nominal 20 mg/kg) or a single IM dose (Group 2, nominal 20 mg/kg) of 14C-Genistein (results shown in Table 11). The Genistein suspension formulation used was prepared as described in Example 8, Following dosing, the content and concentration of radioactivity in blood, plasma and excreta, and the non-compartmental pharmacokinetics of total radioactivity in whole blood and plasma were determined. The concentration of radioactivity in both dose formulations was measured pre and post dose by liquid scintillation spectroscopy and was similar on both occasions. The radiochemical stability of the test article in both dose formulations was assessed prior to and following the administration of the dose. The mean stability values for pre and post dose samples from the intravenous dose formulation (Group 1) were 100% and 99.6%, respectively. The mean stability values for pre and post dose samples from the intramuscular dose formulation (Group 2) were 99.2% and 98.9%, respectively. Therefore, the ^14C-Genistein in both formulations was considered to have been radiochemically stable throughout the dosing period."}, "[2]": {"experiment": "Pharmacokinetics and excretion in Beagle dogs after IV or IM 14C-Genistein (Example 9)", "assay_type": "in vivo", "conditions": "for AUC0-inf / AUC0-tlast / Cmax / Extrapolation / ke1 / tlast / Bioavailibility: male Beagle dogs, total radioactivity; for Bioavailibility: Group 2 single IM 20 mg/kg vs IV, from AUC0-tlast", "description": "as §1\n(§2) Whole-blood samples were collected and plasma was obtained by centrifugation. The concentration of radioactivity in whole-blood and plasma was measured by liquid scintillation spectroscopy."}, "[3]": {"experiment": "Pharmacokinetics and excretion in mice after IV or IM 14C-Genistein (Example 8)", "assay_type": "in vivo", "conditions": "for Bioavailibility / AUC0-inf / AUC0-tlast / Cmax / Extrapolation / ke1 / tlast: male CD1 mice, total radioactivity; for Bioavailibility: Group 2 single IM 200 mg/kg vs IV; for Excretion recovery: by 168 hours post dose", "description": "As shown in the results of Table 10, male CD1 mice were administered a single IM dose (Group 2, nominal 200 mg/kg) or a single IV bolus dose (Group 3, nominal 50 mg/kg) of ^14C-Genistein. The genistein formulation used was a suspension formulation that includes genistein suspended in sterile water with 0.2% (w/w) Polysorbate 80 and 5% (w/w) PVP K17. […] Following dosing, the content and concentration of radioactivity in blood, plasma, excreta and carcass, and the non-compartmental pharmacokinetics of total radioactivity in whole blood and plasma were determined, Following dose administration, the extent and severity of any clinical signs was assessed.\nas §2"}, "[4]": {"conditions": "Group 1 single IV bolus 20 mg/kg, blood"}, "[5]": {"conditions": "Group 1 single IV bolus 20 mg/kg, plasma"}, "[6]": {"conditions": "Group 2 single IM 20 mg/kg, blood"}, "[7]": {"conditions": "Group 2 single IM 20 mg/kg, plasma"}, "[8]": {"conditions": "Group 2 single IM 200 mg/kg, blood"}, "[9]": {"conditions": "Group 2 single IM 200 mg/kg, plasma"}, "[10]": {"conditions": "Group 3 single IV bolus 50 mg/kg, blood"}, "[11]": {"conditions": "Group 3 single IV bolus 50 mg/kg, plasma"}}, "data": [{"smiles": "O=c1c(-c2ccc(O)cc2)coc2cc(O)cc(O)c12", "note": "[14C-Genistein]", "values": [{"measurement": "mean stability value (radiochemical)", "setting": "[1]; intramuscular dose formulation (Group 2), post dose", "value": 98.9, "unit": "%"}, {"measurement": "mean stability value (radiochemical)", "setting": "[1]; intramuscular dose formulation (Group 2), pre dose", "value": 99.2, "unit": "%"}, {"measurement": "mean stability value (radiochemical)", "setting": "[1]; intravenous dose formulation (Group 1), post dose", "value": 99.6, "unit": "%"}, {"measurement": "mean stability value (radiochemical)", "setting": "[1]; intravenous dose formulation (Group 1), pre dose", "value": 100, "unit": "%"}, {"measurement": "mean radiochemical stability", "setting": "[1]; intramuscular dose formulation (Group 2), following dosing", "value": 98.2, "unit": "%"}, {"measurement": "mean radiochemical stability", "setting": "[1]; intramuscular dose formulation (Group 2), prior to dosing", "value": 98.5, "unit": "%"}, {"measurement": "mean radiochemical stability", "setting": "[1]; intravenous dose formulation (Group 3), post dose", "value": 98.5, "unit": "%"}, {"measurement": "mean radiochemical stability", "setting": "[1]; intravenous dose formulation (Group 3), pre dose", "value": 98.3, "unit": "%"}, {"measurement": "Excretion recovery by 168 hours post dose", "setting": "[2]; dogs, Group 1 IV", "value": "approximately 87.9%"}, {"measurement": "Blood to plasma ratios", "setting": "[2]; dogs, Group 1 IV bolus 20 mg/kg", "value": "less than 1"}, {"measurement": "time post dose of highest mean concentration of radiolabelled material in plasma and whole blood", "setting": "[2]; dogs, Group 1 IV bolus 20 mg/kg, first time point analyzed", "value": 15, "unit": "min"}, {"measurement": "Excretion recovery by 168 hours post dose", "setting": "[2]; dogs, Group 2 IM", "value": "~85.8", "unit": "%"}, {"measurement": "time post dose of highest mean concentration of radioactivity in plasma and whole blood", "setting": "[2]; dogs, Group 2 IM 20 mg/kg", "value": 2, "unit": "h"}, {"measurement": "Blood to plasma ratios", "setting": "[2]; dogs, Group 2 IM 20 mg/kg, any time post dose", "value": "less than 1"}, {"measurement": "Clinical signs", "setting": "[2]; dogs, IV bolus 20 mg/kg and IM 20 mg/kg, considered to be dose-related", "value": "Clinical signs were observed in both groups"}, {"measurement": "excretion mass balance", "setting": "[2]; dogs, both dose routes", "value": "greater than 85%"}, {"measurement": "time within which the majority of the dose administered was excreted", "setting": "[2]; dogs, both dose routes", "value": "≤ 48", "unit": "h"}, {"measurement": "overall mean excretion mass balance of radioactivity", "setting": "[2]; dogs, both groups", "value": "86-88 % of the administered dose"}, {"measurement": "AUC0-inf", "setting": "[2]; [4]", "value": 122, "unit": "μg eq · h/mL"}, {"measurement": "AUC0-tlast", "setting": "[2]; [4]", "value": 117, "unit": "μg eq · h/mL"}, {"measurement": "Cmax", "setting": "[2]; [4]", "value": 40.4, "unit": "μg eq/mL"}, {"measurement": "Extrapolation", "setting": "[2]; [4]", "value": 16.8, "unit": "%"}, {"measurement": "ke1", "setting": "[2]; [4]", "value": 0.0130, "unit": "h⁻¹"}, {"measurement": "tlast", "setting": "[2]; [4]", "value": 120, "unit": "h"}, {"measurement": "AUC0-inf", "setting": "[2]; [5]", "value": 227, "unit": "μg eq · h/mL"}, {"measurement": "AUC0-tlast", "setting": "[2]; [5]", "value": 201, "unit": "μg eq · h/mL"}, {"measurement": "Cmax", "setting": "[2]; [5]", "value": 94.4, "unit": "μg eq/mL"}, {"measurement": "Extrapolation", "setting": "[2]; [5]", "value": 11.3, "unit": "%"}, {"measurement": "ke1", "setting": "[2]; [5]", "value": 0.0138, "unit": "h⁻¹"}, {"measurement": "tlast", "setting": "[2]; [5]", "value": 120, "unit": "h"}, {"measurement": "Bioavailibility", "setting": "[2]; blood", "value": 92.9, "unit": "%"}, {"measurement": "Bioavailibility", "setting": "[2]; plasma", "value": 96.1, "unit": "%"}, {"measurement": "AUC0-tlast", "setting": "[2]; [6]", "value": 108, "unit": "μg eq · h/mL"}, {"measurement": "Cmax", "setting": "[2]; [6]", "value": 5.39, "unit": "μg eq/mL"}, {"measurement": "tlast", "setting": "[2]; [6]", "value": 168, "unit": "h"}, {"measurement": "AUC0-inf", "setting": "[2]; [7]", "value": 228, "unit": "μg eq · h/mL"}, {"measurement": "AUC0-tlast", "setting": "[2]; [7]", "value": 193, "unit": "μg eq · h/mL"}, {"measurement": "Cmax", "setting": "[2]; [7]", "value": 10.9, "unit": "μg eq/mL"}, {"measurement": "Extrapolation", "setting": "[2]; [7]", "value": 15.1, "unit": "%"}, {"measurement": "ke1", "setting": "[2]; [7]", "value": 0.0092, "unit": "h⁻¹"}, {"measurement": "tlast", "setting": "[2]; [7]", "value": 168, "unit": "h"}, {"measurement": "treatment-related clinical signs", "setting": "[3]; main study male mice, single IM 200 mg/kg or single IV 50 mg/kg", "value": "No treatment-related clinical signs were observed"}, {"measurement": "Bioavailibility", "setting": "[3]; blood", "value": 49.7, "unit": "%"}, {"measurement": "Bioavailibility", "setting": "[3]; plasma", "value": 83.5, "unit": "%"}, {"measurement": "AUC0-inf", "setting": "[3]; [8]", "value": 223, "unit": "μg eq · h/mL"}, {"measurement": "AUC0-tlast", "setting": "[3]; [8]", "value": 222, "unit": "μg eq · h/mL"}, {"measurement": "Cmax", "setting": "[3]; [8]", "value": 33.3, "unit": "μg eq/mL"}, {"measurement": "Extrapolation", "setting": "[3]; [8]", "value": 0.663, "unit": "%"}, {"measurement": "ke1", "setting": "[3]; [8]", "value": 0.0242, "unit": "h⁻¹"}, {"measurement": "tlast", "setting": "[3]; [8]", "value": 168, "unit": "h"}, {"measurement": "AUC0-inf", "setting": "[3]; [9]", "value": 387, "unit": "μg eq · h/mL"}, {"measurement": "AUC0-tlast", "setting": "[3]; [9]", "value": 375, "unit": "μg eq · h/mL"}, {"measurement": "Cmax", "setting": "[3]; [9]", "value": 63.1, "unit": "μg eq/mL"}, {"measurement": "Extrapolation", "setting": "[3]; [9]", "value": 3.18, "unit": "%"}, {"measurement": "ke1", "setting": "[3]; [9]", "value": 0.0145, "unit": "h⁻¹"}, {"measurement": "tlast", "setting": "[3]; [9]", "value": 168, "unit": "h"}, {"measurement": "AUC0-inf", "setting": "[3]; [10]", "value": 112, "unit": "μg eq · h/mL"}, {"measurement": "AUC0-tlast", "setting": "[3]; [10]", "value": 99.7, "unit": "μg eq · h/mL"}, {"measurement": "Cmax", "setting": "[3]; [10]", "value": 60.1, "unit": "μg eq/mL"}, {"measurement": "Extrapolation", "setting": "[3]; [10]", "value": 11.4, "unit": "%"}, {"measurement": "ke1", "setting": "[3]; [10]", "value": 0.0118, "unit": "h⁻¹"}, {"measurement": "tlast", "setting": "[3]; [10]", "value": 168, "unit": "h"}, {"measurement": "AUC0-inf", "setting": "[3]; [11]", "value": 116, "unit": "μg eq · h/mL"}, {"measurement": "AUC0-tlast", "setting": "[3]; [11]", "value": 116, "unit": "μg eq · h/mL"}, {"measurement": "Cmax", "setting": "[3]; [11]", "value": 108, "unit": "μg eq/mL"}, {"measurement": "Extrapolation", "setting": "[3]; [11]", "value": 0.191, "unit": "%"}, {"measurement": "ke1", "setting": "[3]; [11]", "value": 0.0307, "unit": "h⁻¹"}, {"measurement": "tlast", "setting": "[3]; [11]", "value": 168, "unit": "h"}, {"measurement": "tolerability of dose level", "setting": "[3]; mice, 200 mg/kg (IM) and 50 mg/kg (IV)", "value": "well tolerated"}, {"measurement": "Blood to plasma ratios", "setting": "[3]; mice, Group 2 IM 200 mg/kg, any time post dose", "value": "less than 1"}, {"measurement": "time post dose of highest mean concentration of radioactivity in plasma and whole blood", "setting": "[3]; mice, Group 2 IM 200 mg/kg, first time point analyzed", "value": 30, "unit": "min"}, {"measurement": "Excretion recovery", "setting": "[3]; mice, Group 2 IM", "value": "~92", "unit": "%"}, {"measurement": "blood-to-plasma ratios", "setting": "[3]; mice, Group 3 IV 50 mg/kg, 0 to 24 hours", "value": "less than 1"}, {"measurement": "time post dose of highest mean concentration of radiolabelled material in plasma and whole blood", "setting": "[3]; mice, Group 3 IV 50 mg/kg, first time point analyzed", "value": 30, "unit": "min"}, {"measurement": "Excretion recovery", "setting": "[3]; mice, Group 3 IV", "value": "approximately 93%"}, {"measurement": "time within which the majority of the dose administered was excreted", "setting": "[3]; mice, both dose routes", "value": "≤ 24", "unit": "h"}]}]}
